In patent US7074789B2, “Kinase inhibitors” (Amgen Inc., priority 1999, dated 2006):

Tests used:
Type in all cases: biochemical
Zap-70 = target: T1, Zap-70 (Homo sapiens, UniProt P43403); assay: Kinase inhibition assay (33P transfer), Zap-70; details: Table 3, class symbols; read-out: Zap-1
T1 construct: Kinases are expressed as either kinase domains or full length constructs; made in house
T1 sequence (P43403 1-619): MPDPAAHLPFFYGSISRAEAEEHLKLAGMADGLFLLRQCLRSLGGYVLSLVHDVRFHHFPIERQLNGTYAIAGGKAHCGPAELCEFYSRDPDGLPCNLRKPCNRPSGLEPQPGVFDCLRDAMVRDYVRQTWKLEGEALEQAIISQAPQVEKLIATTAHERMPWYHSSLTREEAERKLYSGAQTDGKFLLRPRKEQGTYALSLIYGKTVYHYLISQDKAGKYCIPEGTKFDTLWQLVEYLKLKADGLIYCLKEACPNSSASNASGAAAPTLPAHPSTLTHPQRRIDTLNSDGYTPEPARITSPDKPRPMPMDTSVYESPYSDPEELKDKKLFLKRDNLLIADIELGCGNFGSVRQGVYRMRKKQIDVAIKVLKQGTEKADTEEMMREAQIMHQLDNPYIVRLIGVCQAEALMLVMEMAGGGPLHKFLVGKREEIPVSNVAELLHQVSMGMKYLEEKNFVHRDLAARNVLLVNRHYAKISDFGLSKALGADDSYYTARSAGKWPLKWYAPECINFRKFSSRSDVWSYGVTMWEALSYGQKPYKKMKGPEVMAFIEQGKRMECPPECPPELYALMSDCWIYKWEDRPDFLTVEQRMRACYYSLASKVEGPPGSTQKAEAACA
How it was run: (§1)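 Recombinant kinase-domain or full-length fusion proteins (GST or His tag) served as enzyme. Substrate poly(Glu,Tyr) 4:1 or poly(Arg,Ser) 3:1 was bound to the plate; transferred 33P was read by liquid scintillation following acid washing.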

PDGFRB = target: T2, PDGFRB (Homo sapiens, UniProt P09619); assay: Kinase inhibition assay (33P transfer), PDGFRB; details: read-out: PDGFRB-1
T2 construct: Kinases are expressed as either kinase domains or full length constructs; made in house

ErbB2 = target: T3, ErbB2 (Homo sapiens, UniProt P04626); assay: Kinase inhibition assay (33P transfer), ErbB2; details: read-out: ErbB2-2
T3 construct: Kinases are expressed as either kinase domains or full length constructs; made in house
How it was run: (§2)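 Steps: coat wells with poly(Glu,Tyr) 4:1 or poly(Arg,Ser) 3:1; add purified kinase, [33P]ATP and inhibitor; incubate; wash with 0.5% phosphoric acid; add liquid scintillant; count. IC50 corresponds to half-maximal reduction of bound 33P.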

Lck = target: T4, Lck (Homo sapiens, UniProt P06239); assay: Kinase inhibition assay (33P transfer), Lck; details: Table 3, class symbols; read-out: Lck-1
T4 construct: Kinases are expressed as either kinase domains or full length constructs; made in house
How it was run: as §1

c-Met = target: T5, c-Met (Homo sapiens, UniProt P08581); assay: Kinase inhibition assay (33P transfer), c-Met; details: Table 2, class symbols A-E; read-out: Met-1
T5 construct: Kinases are expressed as either kinase domains or full length constructs; made in house
How it was run: as §2

Itk = target: T6, Itk (Homo sapiens, UniProt Q08881); assay: Kinase inhibition assay (33P transfer), Itk; details: Table 3, class symbols; read-out: Itk-1
T6 construct: Kinases are expressed as either kinase domains or full length constructs; made in house
T6 sequence (Q08881 1-620): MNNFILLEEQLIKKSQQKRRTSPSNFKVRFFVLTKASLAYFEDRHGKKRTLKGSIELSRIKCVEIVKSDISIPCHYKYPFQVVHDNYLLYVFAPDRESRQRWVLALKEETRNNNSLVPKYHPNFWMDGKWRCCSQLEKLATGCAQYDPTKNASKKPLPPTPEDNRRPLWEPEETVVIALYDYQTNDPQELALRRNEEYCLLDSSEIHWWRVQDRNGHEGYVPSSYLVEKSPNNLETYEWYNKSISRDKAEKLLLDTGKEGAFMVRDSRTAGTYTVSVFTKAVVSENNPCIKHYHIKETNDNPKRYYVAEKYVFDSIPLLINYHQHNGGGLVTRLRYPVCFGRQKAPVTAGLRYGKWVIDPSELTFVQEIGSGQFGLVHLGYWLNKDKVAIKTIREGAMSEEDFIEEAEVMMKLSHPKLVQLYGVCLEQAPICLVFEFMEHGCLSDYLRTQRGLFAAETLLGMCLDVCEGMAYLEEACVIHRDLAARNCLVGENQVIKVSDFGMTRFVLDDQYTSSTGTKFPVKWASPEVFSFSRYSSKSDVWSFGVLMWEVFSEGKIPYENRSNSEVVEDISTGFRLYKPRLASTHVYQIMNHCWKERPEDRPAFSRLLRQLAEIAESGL
How it was run: as §2

IGFR-1 = target: T7, IGFR-1 (Homo sapiens, UniProt P08069); assay: Kinase inhibition assay (33P transfer), IGFR-1; details: Table 2, class symbols A-E
T7 construct: Kinases are expressed as either kinase domains or full length constructs; made in house

EGFR = target: T8, EGFR (Homo sapiens, UniProt P00533); assay: Kinase inhibition assay (33P transfer), EGFR; details: Table 2, class symbols A-E; read-out: EGFR-1
T8 construct: Kinases are expressed as either kinase domains or full length constructs; made in house
How it was run: as §2

Kdr = target: T9, Kdr (Homo sapiens, UniProt P35968); assay: Kinase inhibition assay (33P transfer), Kdr; details: Table 3, class symbols; read-out: KDR-1
T9 construct: Kinases are expressed as either kinase domains or full length constructs; made in house
How it was run: as §1

AKT = target: T10, AKT (Homo sapiens, UniProt Q9Y243); assay: Kinase inhibition assay (33P transfer), AKT; details: Table 2, class symbols A-E; read-out: AKT3-1
T10 construct: Kinases are expressed as either kinase domains or full length constructs; made in house
How it was run: as §1

T5 sequence (P08581 25-1390): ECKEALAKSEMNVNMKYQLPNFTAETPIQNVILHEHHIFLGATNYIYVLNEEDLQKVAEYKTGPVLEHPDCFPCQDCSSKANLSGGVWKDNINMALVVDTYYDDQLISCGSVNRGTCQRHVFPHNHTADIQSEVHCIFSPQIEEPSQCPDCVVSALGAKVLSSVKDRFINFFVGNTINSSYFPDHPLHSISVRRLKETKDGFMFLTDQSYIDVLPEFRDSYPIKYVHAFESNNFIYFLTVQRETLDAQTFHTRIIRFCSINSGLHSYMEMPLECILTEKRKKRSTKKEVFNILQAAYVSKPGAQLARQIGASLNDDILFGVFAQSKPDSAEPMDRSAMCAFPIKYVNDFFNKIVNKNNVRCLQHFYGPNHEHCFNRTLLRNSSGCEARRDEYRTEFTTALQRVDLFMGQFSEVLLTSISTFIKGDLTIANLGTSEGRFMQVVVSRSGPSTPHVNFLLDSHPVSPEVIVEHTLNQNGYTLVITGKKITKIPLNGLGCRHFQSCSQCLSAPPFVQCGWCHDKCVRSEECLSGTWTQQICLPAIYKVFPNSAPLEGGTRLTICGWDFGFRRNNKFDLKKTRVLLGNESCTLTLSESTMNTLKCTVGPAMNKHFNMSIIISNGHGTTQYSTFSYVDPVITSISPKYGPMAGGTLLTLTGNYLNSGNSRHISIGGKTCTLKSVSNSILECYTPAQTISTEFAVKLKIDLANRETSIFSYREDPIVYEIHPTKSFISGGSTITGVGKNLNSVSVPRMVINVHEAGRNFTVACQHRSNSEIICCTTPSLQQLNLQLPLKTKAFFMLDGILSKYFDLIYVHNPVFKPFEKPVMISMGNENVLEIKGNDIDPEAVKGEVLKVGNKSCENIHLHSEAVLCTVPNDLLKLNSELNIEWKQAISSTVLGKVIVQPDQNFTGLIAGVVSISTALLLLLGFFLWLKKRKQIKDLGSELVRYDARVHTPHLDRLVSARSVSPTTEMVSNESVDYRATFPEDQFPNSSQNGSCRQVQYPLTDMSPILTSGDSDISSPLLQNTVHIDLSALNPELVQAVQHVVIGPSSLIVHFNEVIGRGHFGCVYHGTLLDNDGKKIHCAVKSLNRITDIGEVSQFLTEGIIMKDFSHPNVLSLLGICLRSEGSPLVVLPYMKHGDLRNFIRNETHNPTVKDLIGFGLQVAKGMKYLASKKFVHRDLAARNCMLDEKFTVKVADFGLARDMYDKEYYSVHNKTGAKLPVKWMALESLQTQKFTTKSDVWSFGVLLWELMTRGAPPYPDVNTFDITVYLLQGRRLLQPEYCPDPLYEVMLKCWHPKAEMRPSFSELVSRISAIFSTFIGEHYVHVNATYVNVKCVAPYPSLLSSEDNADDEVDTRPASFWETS
T9 sequence (P35968 20-1356, species assumed): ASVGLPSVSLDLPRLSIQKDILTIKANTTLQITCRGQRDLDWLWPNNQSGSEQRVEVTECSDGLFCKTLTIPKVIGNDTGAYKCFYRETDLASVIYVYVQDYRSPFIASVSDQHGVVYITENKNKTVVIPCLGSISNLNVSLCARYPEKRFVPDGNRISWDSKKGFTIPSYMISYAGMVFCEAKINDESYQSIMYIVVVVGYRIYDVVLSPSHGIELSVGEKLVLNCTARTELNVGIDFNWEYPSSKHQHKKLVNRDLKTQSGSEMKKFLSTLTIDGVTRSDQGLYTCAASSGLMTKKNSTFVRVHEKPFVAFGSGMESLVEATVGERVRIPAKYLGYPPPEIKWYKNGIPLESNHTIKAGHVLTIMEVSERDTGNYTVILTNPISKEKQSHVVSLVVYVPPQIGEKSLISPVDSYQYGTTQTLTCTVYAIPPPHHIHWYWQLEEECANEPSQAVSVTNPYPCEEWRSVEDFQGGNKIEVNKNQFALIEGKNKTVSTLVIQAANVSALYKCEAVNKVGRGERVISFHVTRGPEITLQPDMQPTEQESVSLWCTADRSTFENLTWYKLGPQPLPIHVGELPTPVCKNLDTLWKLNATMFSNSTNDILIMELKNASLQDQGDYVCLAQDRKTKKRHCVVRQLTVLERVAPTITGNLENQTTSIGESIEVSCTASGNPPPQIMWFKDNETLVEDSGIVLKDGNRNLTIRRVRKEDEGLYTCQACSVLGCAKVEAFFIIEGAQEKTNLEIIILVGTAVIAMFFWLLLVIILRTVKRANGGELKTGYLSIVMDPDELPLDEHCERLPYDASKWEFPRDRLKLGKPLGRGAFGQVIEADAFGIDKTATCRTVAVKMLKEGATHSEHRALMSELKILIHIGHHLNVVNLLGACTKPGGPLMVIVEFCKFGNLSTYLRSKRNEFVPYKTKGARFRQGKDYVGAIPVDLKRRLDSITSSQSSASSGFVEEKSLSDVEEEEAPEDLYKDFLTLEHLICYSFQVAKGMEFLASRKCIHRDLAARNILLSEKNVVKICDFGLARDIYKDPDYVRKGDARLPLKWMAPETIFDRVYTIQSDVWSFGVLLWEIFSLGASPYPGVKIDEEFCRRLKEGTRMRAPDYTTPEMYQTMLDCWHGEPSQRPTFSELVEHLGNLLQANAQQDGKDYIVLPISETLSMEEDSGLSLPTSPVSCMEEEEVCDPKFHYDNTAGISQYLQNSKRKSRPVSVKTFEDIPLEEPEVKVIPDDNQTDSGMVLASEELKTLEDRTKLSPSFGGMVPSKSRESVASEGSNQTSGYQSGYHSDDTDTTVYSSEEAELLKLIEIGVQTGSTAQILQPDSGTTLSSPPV
T8 sequence (P00533 25-1210, species assumed): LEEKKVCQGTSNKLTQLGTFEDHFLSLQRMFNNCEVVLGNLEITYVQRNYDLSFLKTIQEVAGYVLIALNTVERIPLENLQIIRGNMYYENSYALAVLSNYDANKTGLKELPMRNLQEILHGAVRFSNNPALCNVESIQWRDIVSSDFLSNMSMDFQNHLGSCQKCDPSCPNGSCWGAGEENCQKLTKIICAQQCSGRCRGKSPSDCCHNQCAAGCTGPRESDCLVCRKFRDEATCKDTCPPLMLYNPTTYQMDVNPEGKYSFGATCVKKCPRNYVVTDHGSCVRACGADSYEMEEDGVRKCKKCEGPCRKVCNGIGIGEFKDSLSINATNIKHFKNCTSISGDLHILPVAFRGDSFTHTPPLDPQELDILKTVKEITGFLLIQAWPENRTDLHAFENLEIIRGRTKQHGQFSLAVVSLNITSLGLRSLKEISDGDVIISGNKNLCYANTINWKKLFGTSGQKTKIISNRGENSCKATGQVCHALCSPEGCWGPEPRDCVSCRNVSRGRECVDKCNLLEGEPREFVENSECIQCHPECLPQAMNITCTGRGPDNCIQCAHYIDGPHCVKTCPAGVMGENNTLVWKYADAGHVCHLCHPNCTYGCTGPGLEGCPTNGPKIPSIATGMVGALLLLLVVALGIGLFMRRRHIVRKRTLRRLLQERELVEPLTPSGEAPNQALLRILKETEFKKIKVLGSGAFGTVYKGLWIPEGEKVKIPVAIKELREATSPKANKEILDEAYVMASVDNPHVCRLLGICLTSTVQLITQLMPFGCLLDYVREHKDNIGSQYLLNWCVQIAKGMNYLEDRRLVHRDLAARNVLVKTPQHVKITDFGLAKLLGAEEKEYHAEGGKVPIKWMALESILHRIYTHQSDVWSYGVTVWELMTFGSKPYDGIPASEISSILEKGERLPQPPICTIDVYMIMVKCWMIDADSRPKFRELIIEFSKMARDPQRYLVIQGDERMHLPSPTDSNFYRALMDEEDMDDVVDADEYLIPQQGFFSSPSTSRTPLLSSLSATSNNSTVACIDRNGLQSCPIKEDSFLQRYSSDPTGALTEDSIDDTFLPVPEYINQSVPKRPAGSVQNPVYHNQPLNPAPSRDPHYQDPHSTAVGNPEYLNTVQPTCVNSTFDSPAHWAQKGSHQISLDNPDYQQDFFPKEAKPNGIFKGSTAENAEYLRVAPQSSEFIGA
T10 sequence (Q9Y243 whole entry, the tested form may be a part): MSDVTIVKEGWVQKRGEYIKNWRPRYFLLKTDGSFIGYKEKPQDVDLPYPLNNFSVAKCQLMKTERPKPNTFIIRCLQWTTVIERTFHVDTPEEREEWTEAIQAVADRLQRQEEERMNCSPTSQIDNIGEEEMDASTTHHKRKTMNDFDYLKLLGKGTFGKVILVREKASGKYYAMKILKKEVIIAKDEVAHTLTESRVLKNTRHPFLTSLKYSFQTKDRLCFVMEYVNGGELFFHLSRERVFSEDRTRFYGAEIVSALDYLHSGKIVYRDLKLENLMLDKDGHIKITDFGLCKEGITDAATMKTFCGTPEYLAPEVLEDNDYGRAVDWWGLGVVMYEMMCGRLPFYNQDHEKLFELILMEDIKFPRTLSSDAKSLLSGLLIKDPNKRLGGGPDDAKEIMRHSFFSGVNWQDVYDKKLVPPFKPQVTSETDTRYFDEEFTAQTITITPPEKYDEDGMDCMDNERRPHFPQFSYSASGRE
T4 sequence (P06239 whole entry, species assumed, the tested form may be a part): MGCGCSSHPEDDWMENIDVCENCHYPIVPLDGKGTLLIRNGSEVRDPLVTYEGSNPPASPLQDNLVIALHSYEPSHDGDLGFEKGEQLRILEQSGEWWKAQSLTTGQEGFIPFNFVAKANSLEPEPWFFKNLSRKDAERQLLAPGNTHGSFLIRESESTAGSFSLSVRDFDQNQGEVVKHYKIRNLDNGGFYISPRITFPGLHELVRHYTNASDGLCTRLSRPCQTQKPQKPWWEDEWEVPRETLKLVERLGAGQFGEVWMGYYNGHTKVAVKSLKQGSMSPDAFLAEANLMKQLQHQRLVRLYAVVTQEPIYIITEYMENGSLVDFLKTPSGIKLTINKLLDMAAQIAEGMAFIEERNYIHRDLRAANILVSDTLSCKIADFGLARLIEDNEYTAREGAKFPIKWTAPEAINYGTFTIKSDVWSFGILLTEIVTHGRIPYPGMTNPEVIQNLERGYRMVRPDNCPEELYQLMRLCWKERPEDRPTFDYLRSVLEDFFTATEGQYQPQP

IC50 (Zap-70)	IC50 (PDGFRB)	IC50 (ErbB2)	IC50 (Lck)	IC50 (c-Met)	IC50 (Itk)	IC50 (IGFR-1)	IC50 (EGFR)	IC50 (Kdr)	IC50 (AKT)	Compound
> 12.1 µM	1.08 to 6.46 µM	1.08 to 6.46 µM	< 1.08 µM	1.08 to 6.46 µM	< 1.08 µM	< 1.08 µM	< 1.08 µM	1.08 to 6.46 µM	> 12.1 µM	Cc1ccc(-c2cc(Nc3ncnc(Nc4cc(C)ccc4C)n3)[nH]n2)cc1 [Compound 1125]
> 10.3 µM	> 10.3 µM	0.913 to 5.48 µM	0.913 to 5.48 µM	0.913 to 5.48 µM	0.913 to 5.48 µM	< 0.913 µM	7.99 to 10.3 µM	0.913 to 5.48 µM	> 10.3 µM	COc1cc(C)c(Nc2ncnc(Nc3cc(-c4ccc(Cl)cc4)n[nH]3)n2)cc1OC [Compound 1128]
6.59 to 9.6 µM	< 1.1 µM	> 12.3 µM	1.1 to 6.59 µM	6.59 to 9.6 µM	> 12.3 µM	> 12.3 µM	> 12.3 µM	1.1 to 6.59 µM	> 12.3 µM	CC(C)Nc1ncccc1-c1ncnc(Nc2cccc(CC(=O)O)c2)n1 [Compound 1097]
> 12.1 µM	1.07 to 6.43 µM	9.37 to 12.1 µM	1.07 to 6.43 µM	1.07 to 6.43 µM	> 12.1 µM	> 12.1 µM	< 1.07 µM	6.43 to 9.37 µM	> 12.1 µM	COc1ccc(Nc2ncnc(N(C)c3ccc(F)cc3F)n2)cc1OC [Compound 801]
> 10.8 µM	8.43 to 10.8 µM	> 10.8 µM	> 10.8 µM	> 10.8 µM	> 10.8 µM	> 10.8 µM	> 10.8 µM	> 10.8 µM	> 10.8 µM	CN(c1cccc(Cl)c1)c1ncnc(Nc2cc(Cl)c(Cl)c(Cl)c2)n1 [Compound 804]
> 9.62 µM	0.856 to 5.13 µM	< 0.856 µM	0.856 to 5.13 µM	7.49 to 9.62 µM	> 9.62 µM	> 9.62 µM	< 0.856 µM	0.856 to 5.13 µM	> 9.62 µM	COc1ccc(Nc2ncnc(N(C)c3ccc4c(cnn4Cc4ccccc4)c3)n2)cc1OC [Compound 669]
> 12.8 µM	> 12.8 µM	1.14 to 6.83 µM	1.14 to 6.83 µM	1.14 to 6.83 µM	> 12.8 µM	9.96 to 12.8 µM	< 1.14 µM	1.14 to 6.83 µM	> 12.8 µM	COc1ccc(Nc2ncnc(N(C)c3cccc(C)c3)n2)cc1OC [Compound 800]
6.5 to 9.48 µM	< 1.08 µM	1.08 to 6.5 µM	1.08 to 6.5 µM	1.08 to 6.5 µM	1.08 to 6.5 µM	< 1.08 µM	1.08 to 6.5 µM	< 1.08 µM	1.08 to 6.5 µM	c1ccc(-c2cc(Nc3ncnc(Nc4ccc5[nH]ncc5c4)n3)[nH]n2)cc1 [Compound 1013]
> 11.3 µM	< 1 µM	> 11.3 µM	6.01 to 8.77 µM	> 11.3 µM	> 11.3 µM	< 1 µM	< 1 µM	1 to 6.01 µM	> 11.3 µM	NC(=O)Cc1cccc(Nc2ncnc(Nc3cccc(Br)c3)n2)c1 [Compound 966]
> 10.2 µM	< 0.91 µM	> 10.2 µM	> 10.2 µM	> 10.2 µM	> 10.2 µM	> 10.2 µM	> 10.2 µM	< 0.91 µM	> 10.2 µM	c1ccc(CNc2ncccc2-c2ncnc(Nc3ccc(N4CCOCC4)cc3)n2)cc1 [Compound 1105]
> 9.14 µM	< 0.812 µM	4.87 to 7.11 µM	4.87 to 7.11 µM	> 9.14 µM	7.11 to 9.14 µM	> 9.14 µM	0.812 to 4.87 µM	< 0.812 µM	> 9.14 µM	Fc1cccc(CNc2nc3ccccc3n2-c2ncnc(Nc3cccc(Cn4ccnn4)c3)n2)c1 [Compound 964]
> 10.3 µM	0.912 to 5.47 µM	> 10.3 µM	> 10.3 µM	7.98 to 10.3 µM	7.98 to 10.3 µM	5.47 to 7.98 µM	> 10.3 µM	> 10.3 µM	> 10.3 µM	COC(=O)c1ccc(-c2cc(Nc3ncnc(Nc4cccc5ncccc45)n3)[nH]n2)cc1 [Compound 878]
> 10.7 µM	0.951 to 5.71 µM	> 10.7 µM	> 10.7 µM	> 10.7 µM	> 10.7 µM	> 10.7 µM	> 10.7 µM	> 10.7 µM	> 10.7 µM	COc1ccc(Nc2ncnc(N(C)C3CCN(Cc4ccccc4)C3)n2)cc1OC (centres unmarked) [Compound 802]
> 11.8 µM	1.05 to 6.29 µM	> 11.8 µM	> 11.8 µM	> 11.8 µM	1.05 to 6.29 µM	> 11.8 µM	1.05 to 6.29 µM	> 11.8 µM	> 11.8 µM	COc1ccc(Nc2ncnc(N(C)CC(O)c3ccccc3)n2)cc1OC (centres unmarked) [Compound 868]
> 12.4 µM	> 12.4 µM	> 12.4 µM	> 12.4 µM	> 12.4 µM	> 12.4 µM	> 12.4 µM	> 12.4 µM	> 12.4 µM	> 12.4 µM	COc1ccc(CNc2ncnc(Nc3cc(-c4ccco4)n[nH]3)n2)cc1 [Compound 994]
> 10.6 µM	0.938 to 5.63 µM	0.938 to 5.63 µM	5.63 to 8.21 µM	< 0.938 µM	< 0.938 µM	< 0.938 µM	0.938 to 5.63 µM	< 0.938 µM	0.938 to 5.63 µM	CNS(=O)(=O)Cc1ccc(Nc2ncnc(Nc3cc(-c4ccco4)[nH]n3)n2)cc1 [Compound 888]
> 12 µM	1.06 to 6.38 µM	1.06 to 6.38 µM	1.06 to 6.38 µM	1.06 to 6.38 µM	1.06 to 6.38 µM	1.06 to 6.38 µM	< 1.06 µM	< 1.06 µM	> 12 µM	CNC(=O)c1cccc(Nc2ncnc(Nc3cc(-c4ccco4)[nH]n3)n2)c1 [Compound 826]
> 10.1 µM	0.898 to 5.39 µM	0.898 to 5.39 µM	> 10.1 µM	> 10.1 µM	> 10.1 µM	> 10.1 µM	> 10.1 µM	> 10.1 µM	> 10.1 µM	COC(=O)c1ccc(-c2cc(Nc3ncnc(NCCc4ccc(OC)cc4)n3)[nH]n2)cc1 [Compound 817]
> 8.9 µM	< 0.791 µM	> 8.9 µM	0.791 to 4.75 µM	6.92 to 8.9 µM	4.75 to 6.92 µM	> 8.9 µM	> 8.9 µM	0.791 to 4.75 µM	6.92 to 8.9 µM	COc1cc(Nc2ncnc(-c3cccnc3NC(C)C)n2)ccc1NC(=O)CCCN1CCNCC1 [Compound 1096]
5.3 to 7.73 µM	< 0.884 µM	0.884 to 5.3 µM	0.884 to 5.3 µM	5.3 to 7.73 µM	< 0.884 µM	0.884 to 5.3 µM	0.884 to 5.3 µM	< 0.884 µM	> 9.94 µM	Fc1ccc(CNc2ncccc2-c2ncnc(Nc3cccc(Cn4ccnc4)c3)n2)cc1 [Compound 1109]
